Measured values reported in patent US20040014217A1, “Methods of transfection” (priority 2000, published 2004).

Columns and labels:
1HAEo-cells = assay: BrdU incorporation by flow cytometry, 1HAEo- cells; type: cell-based, human; conditions: EGTA 2 mM, aphidicolin 10 μg/ml where present
Description: A BrdU Labelling and Detection Kit (Roche, Basel, Switzerland) was used, which contains the BrdU labelling reagent and the monoclonal mouse anti-BrdU. […] Cells were washed with PBS and incubated with a second layer antibody, Texas Red labelled horse anti-mouse IgG (Vector Laboratories, Peterborough, UK), for 30 minutes at 37° C. and then analysed by flow cytometry at the wavelength of 575±20 nm as detailed above. In some experiments, aphidicolin, a cell-proliferation inhibitor blocking the cell cycle in S-phase, was added to the cells to observe the effects on transfection efficiency.

[1] = tested on: human lung fibroblasts (HFL-1 cells); assay: Thrombin-induced proliferation of HFL-1 cells after antisense (PAR-1) transfection; type: cell-based
Description: Thrombin stimulates proliferation of human lung fibroblasts. Thrombin-treated human lung fibroblasts (HFL-1 cells) proliferated 53% in response to thrombin. 24 hours before treatment with thrombin, HFL-1 cells were treated with an LID complex comprising [K]16-peptide 6, lipofectin and a 20-mer antisense oligonucleotide directed against the thrombin receptor PAR-1 in the optimal ratio and mixing order prepared as described in the Materials and Methods section and the Examples above. The antisense oligonucleotide-containing complex was in contact with the cells for 4 hours. 24 hours after the start of the treatment with the complex, treatment with thrombin was carried out.

[2] = tested on: Human airway epithelial (HAE) cells; assay: BrdU labelling of HAE cells, Example 13; type: cell-based
Description: Bromodeoxyuridine (BrdU) labelling enables assessment of cell proliferation. BrdU kits are available from Zymed Laboratories, Inc., South San Francisco, Calif., U.S.A. BrdU was added to the cells at the same time as the transfection reagent and was maintained throughout the rest of the experiment until cell harvesting.

integrins = conditions: cited from earlier work
ECV304 cells = assay: Luciferase (pGL2) transfection of ECV304 cells; type: cell-based, human; conditions: LID complexes, 40 μg total [K]16-peptide; luciferase after 48 hours
Description: Cells were seeded into 24-well plates at 5×10^4 cells per well then incubated overnight at 37° C. in complete growth medium. The following day, transfection complexes were made from the following stock solutions, all prepared in OptiMEM (Life Technologies, Paisley, U. K.), lipofectin (an equimolar mixture of the cationic lipid N-[1-(2,3-dioleyloxy)propyl]-N,N,N-trimethylammonium chloride (DOTMA) and the neutral lipid dioleoyl phosphatidylethanolamine (DOPE), obtained as “Lipofectin” from Life Technologies, Paisley, U.K.) (1 mg/ml), pGL2-control (1 mg/100 ml) and [K]16]/integrin-targeting peptide 1, 5 or 6 (0.1 mg/ml).
Complexes were made usually with three components: oligolysine-peptide (I), plasmid DNA or RNA (D) and lipofectin (L), by mixing together the different components with an automatic pipette. […]
Cells transformed with pGL2 were washed twice with PBS to remove serum then 100 microlitres of Reporter Lysis Buffer (Promega, Madison, Wis, U.S.A.) was added to each well and placed at […] for 15 to 30 minutes. […] Total light emission was measured for 60 seconds on an LKB 1251 Luminometer (Labtech, Uckfield, U.K.). The protein concentration of each sample was then determined with Protein Assay Reagent (BioRad, Hercules, Calif., U.S.A.) and luciferase enzyme activity expressed in terms of relative light units per milligram of protein (RLU/mg). […]

C[C@@]1(CO)[C@H](O)CC[C@@]2(C)[C@H]1CC[C@H]1C[C@@H]3C[C@@]12CC[C@]3(O)CO [aphidicolin, Aphidicolin]
BrdU-positive cells, confluent 1HAEo- cells (1HAEo-cells): 5%
BrdU-positive cells, sub-confluent 1HAEo- cells (1HAEo-cells): 7%

thrombin
proliferation in response to thrombin [1]: 53%

O=c1[nH]c(=O)n([C@H]2C[C@H](O)[C@@H](CO)O2)cc1Br [BrdU, 5-Bromo-2′-deoxy-uridine]
BrdU labelling, Confluent cells [2]: 7.1%
BrdU labelling, Sub-confluent cells [2]: 44.4%
BrdU-positive cells, confluent 1HAEo- cells (1HAEo-cells): 7.1%
BrdU-positive cells, sub-confluent 1HAEo- cells (1HAEo-cells): 43.0%

GACDCRGDCFCA [Peptide 5]
integrin specificity (integrins): (αv)

[K]16GACRRETAWACG (KKKKKKKKKKKKKKKKGACRRETAWACG) [oligolysine-peptide 6]
transfection efficiency with increasing amounts of oligolysine-peptide 6 replacing [K]16 (ECV304 cells): apparently exponential increase
